# Results reported in patent publication US9315520B2, “2-amino-6-methyl-4,4a,5,6-tetrahydropyrano[3,4-d][1,3]thiazin-8a(8H)-yl-1,3-thiazol-4-yl amides” (Pfizer Inc., priority 2014, dated 2016).
# Like-named read-outs stand apart in the source and are kept apart here.
# What was measured:
# hERG channel = hERG channel (Homo sapiens (Human), UniProt Q12809); assay: hERG Patch Clamp Assay; format: cell-based
# Procedure: After a ˜30 minute recovery period, experiments were initiated.
# hERG Potassium Channel Current Recordings and Data Analysis:
# The intracellular recording saline was composed of (in […]): 70 KF, 60 KCl, 15 NaCl, 5 EGTA, 5 HEPES, and adjusted to pH 7.2±0.1 with KOH. […] Test pulses were delivered at a frequency of 0.25 Hz. Up to 4 different concentrations were studied on each cell, each exposure lasting 5 minutes or until steady-state effects were observed. […] Using Sophion Qpatch Assay Software, the amplitude of the peak outward hERG current upon repolarizing ramp was measured. Current amplitude was determined by taking the average of the last 5 current peaks under each treatment condition. […] When possible, a concentration-response curve was plotted and the data were fitted using Qpatch software to determine an IC50. The P<0.05 was considered statistically significant.
# pKa = format: physicochemical; details: Measurement determined at Analyza
# [1] = target: P-glycoprotein (MDR1-transfected MDCK cell line) (Homo sapiens (Human), UniProt P08183); assay: Pgp Liability MDR1 Er; format: in vitro ADME; details: Papp BA/AB
# P-glycoprotein (MDR1-transfected MDCK cell line), sequence (P08183 whole entry): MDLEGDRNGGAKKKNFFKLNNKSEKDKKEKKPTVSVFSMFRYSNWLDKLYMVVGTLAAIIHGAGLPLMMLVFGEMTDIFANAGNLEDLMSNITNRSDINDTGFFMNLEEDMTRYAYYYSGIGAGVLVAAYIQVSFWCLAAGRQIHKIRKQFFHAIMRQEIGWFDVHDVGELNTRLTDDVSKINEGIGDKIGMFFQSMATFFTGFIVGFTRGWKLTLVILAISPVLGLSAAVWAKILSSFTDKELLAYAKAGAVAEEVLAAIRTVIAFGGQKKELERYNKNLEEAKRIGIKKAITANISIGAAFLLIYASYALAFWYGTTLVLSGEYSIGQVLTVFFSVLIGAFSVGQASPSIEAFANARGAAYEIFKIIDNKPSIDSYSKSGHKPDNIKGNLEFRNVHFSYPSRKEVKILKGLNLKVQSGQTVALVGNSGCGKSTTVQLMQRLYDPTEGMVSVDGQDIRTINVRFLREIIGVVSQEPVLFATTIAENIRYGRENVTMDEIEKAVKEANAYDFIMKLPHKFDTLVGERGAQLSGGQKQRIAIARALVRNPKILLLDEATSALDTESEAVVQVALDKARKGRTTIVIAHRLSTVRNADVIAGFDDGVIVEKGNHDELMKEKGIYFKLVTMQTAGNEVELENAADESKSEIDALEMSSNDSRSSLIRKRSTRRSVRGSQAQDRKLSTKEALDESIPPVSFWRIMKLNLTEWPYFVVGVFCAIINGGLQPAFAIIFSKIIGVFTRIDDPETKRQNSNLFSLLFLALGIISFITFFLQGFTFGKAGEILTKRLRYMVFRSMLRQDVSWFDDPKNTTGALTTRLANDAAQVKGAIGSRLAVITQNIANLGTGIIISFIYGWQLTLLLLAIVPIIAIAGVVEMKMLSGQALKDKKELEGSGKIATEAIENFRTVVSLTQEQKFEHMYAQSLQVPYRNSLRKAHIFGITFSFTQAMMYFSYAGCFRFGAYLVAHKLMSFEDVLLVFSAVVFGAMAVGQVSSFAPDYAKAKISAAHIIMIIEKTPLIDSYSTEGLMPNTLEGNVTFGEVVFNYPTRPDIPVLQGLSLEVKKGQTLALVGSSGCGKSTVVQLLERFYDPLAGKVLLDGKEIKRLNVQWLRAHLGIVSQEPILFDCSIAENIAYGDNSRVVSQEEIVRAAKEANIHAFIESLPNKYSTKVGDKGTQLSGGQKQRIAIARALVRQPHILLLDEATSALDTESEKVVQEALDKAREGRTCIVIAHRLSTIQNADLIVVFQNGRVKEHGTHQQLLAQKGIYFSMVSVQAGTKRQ
# Source text: (§1) MDR1 Efflux Ratio (MDR Er) from MDR1-transfected MDCK line cell line represents the ratio of permeability, Papp BA/AB. Procedure utilized from (Feng, B.; Mills, J. B.; Davidson, R. E.; Mireles, R. J.; Janiszewski, J. S.; Troutman, M. D.; de Morais, S. M. In vitro P-glycoprotein assays to predict the in vivo interactions of P-glycoprotein with drugs in the central nervous system. Drug Metab. Dispos. 2008, 36, 268-275.
# BACE1 = BACE1 (Homo sapiens (Human), UniProt P56817); assay: BACE1 Cell-Free Assay (fluorescence polarization); format: biochemical
# BACE1, sequence (P56817 46-457): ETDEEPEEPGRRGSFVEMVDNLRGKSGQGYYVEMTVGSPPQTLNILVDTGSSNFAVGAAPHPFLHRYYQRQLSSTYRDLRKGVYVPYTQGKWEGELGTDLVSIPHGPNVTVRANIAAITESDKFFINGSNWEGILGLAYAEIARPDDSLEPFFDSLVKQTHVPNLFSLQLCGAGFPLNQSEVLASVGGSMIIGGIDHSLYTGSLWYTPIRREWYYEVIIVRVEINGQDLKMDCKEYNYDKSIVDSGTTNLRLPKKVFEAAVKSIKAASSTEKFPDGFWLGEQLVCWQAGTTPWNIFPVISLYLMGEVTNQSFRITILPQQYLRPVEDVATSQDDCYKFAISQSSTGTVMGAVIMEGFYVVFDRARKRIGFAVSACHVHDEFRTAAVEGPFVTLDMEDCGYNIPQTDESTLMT
# CYP2D6 = CYP2D6 (Homo sapiens (Human), UniProt P10635); assay: General Multi-Point Cocktail DDI IC50 Assay
# CYP2D6, sequence (P10635 whole entry): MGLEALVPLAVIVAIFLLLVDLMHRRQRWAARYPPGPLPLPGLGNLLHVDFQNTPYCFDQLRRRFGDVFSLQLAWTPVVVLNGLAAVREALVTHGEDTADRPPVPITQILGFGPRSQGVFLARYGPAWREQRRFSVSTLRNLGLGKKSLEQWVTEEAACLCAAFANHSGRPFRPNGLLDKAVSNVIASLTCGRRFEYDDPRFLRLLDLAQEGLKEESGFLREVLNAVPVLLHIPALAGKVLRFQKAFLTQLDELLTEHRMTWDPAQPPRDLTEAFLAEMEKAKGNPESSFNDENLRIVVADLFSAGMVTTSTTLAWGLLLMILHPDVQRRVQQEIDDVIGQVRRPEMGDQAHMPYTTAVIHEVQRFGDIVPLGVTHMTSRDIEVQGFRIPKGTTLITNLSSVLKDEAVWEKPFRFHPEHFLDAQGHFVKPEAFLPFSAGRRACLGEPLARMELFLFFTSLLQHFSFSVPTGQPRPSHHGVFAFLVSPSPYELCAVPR
# Procedure: General Multi-Point Cocktail DDI IC50 Assay Conditions:
# The incubation volume is 0.1 mL, utilizing a 384-well plate format. […] Substrate concentrations are near Km values that had been previously determined and incubation times are selected based on determinations of reaction velocity linearity. […] Samples are directly injected on an HPLC/MS/MS system. A Biomek FX workstation is used for liquid handling and sample incubation.
# [2] = HLM Clint (clearance in human liver microsomes); format: in vitro ADME; details: for CLint scaled: human
# [3] = system: sAPPβ, the primary cleavage product of BACE1, in H4 human neuroglioma cells over-expressing the wild-type human APP695; assay: sAPPβ Whole-Cell Assay (WCA); format: cell-based; details: 18 h
# Procedure: sAPPβ Whole-Cell Assay (WCA):
# sAPPβ, the primary cleavage product of BACE1, was determined in H4 human neuroglioma cells over-expressing the wild-type human APP695. […] The colorimetric reaction was read by an EnVision (PerkinElmer) plate-reader.
# GSH Incubation Assay [4] = format: in vitro ADME; details: incubation in human liver microsomes in the presence of GSH
# human BACE2 = human BACE2 (Homo sapiens (Human), UniProt Q9Y5Z0); assay: BACE2 binding assay (SPA); details: ratio of IC50 from BACE2 and BACE1 binding assays, pH 6.0
# human BACE2, sequence (Q9Y5Z0 63-518): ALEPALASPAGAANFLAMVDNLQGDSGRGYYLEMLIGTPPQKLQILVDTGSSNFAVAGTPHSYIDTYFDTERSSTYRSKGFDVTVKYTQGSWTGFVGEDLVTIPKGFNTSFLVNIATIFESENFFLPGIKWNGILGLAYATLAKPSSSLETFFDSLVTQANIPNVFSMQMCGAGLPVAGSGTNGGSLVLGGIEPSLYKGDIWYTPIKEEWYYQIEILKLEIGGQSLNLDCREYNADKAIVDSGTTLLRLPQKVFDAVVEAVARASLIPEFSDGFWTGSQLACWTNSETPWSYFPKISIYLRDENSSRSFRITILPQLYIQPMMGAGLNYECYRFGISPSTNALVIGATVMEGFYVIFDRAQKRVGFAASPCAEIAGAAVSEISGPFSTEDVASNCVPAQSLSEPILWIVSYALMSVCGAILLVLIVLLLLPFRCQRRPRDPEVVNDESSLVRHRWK
# Source text: BACE2/BACE1 Binding Ratio:
# The BACE1 and BACE2 binding assays measured beta-site amyloid precursor protein-cleaving enzyme (BACE) binding as a decrease in the counts of radioligand bound in a scintillation proximity assay (SPA). Utilizing a radiolabeled small molecule BACE active site binding inhibitor and crude HEK cell membrane preparations over-expressing full length BACE1 or BACE2, the binding of enzyme by test compound was monitored as a reduction of specific counts bound at pH 6.0. Full length human BACE1 or BACE2 over-expressed in HEK cells was prepared by Pfizer scientists. Frozen stock cell paste was reacted in 50 mM sodium acetate buffer (pH=6.0) containing 3H-(4aR,6R,8aS)-8a-(2,4-difluorophenyl)-6-(1-methyl-1H-pyrazol-4-yl)-4,4a,5,6,8,8a-hexahydropyrano[3,4-d][1,3]thiazin-2-amine ligand, SPA bead and 60 μM to 600 pM of test compound in an assay volume of 27 uL. The compound plate also contained positive (BACE inhibitor) and negative (DMSO) control wells. The binding was carried out at room temperature for 30 minutes and then the plates were read on a TriLux Microbeta reader to determine the number of counts bound.
# GSH Incubation Assay [5] = format: in vitro ADME; details: for Observed GSH adducts: Incubations with glutathione (50 mM) at 37° C. in buffer for 4 hours; for formation of GSH adducts: following incubations
# Procedure: The test compound (10 μM in DMSO) was incubated with L-glutathione (50 mM, prepared in 100 mM potassium phosphate buffer) at 37° C. for 4 hours and then analyzed by HPLC-UV/MS/MS without work-up. Thermo Accela HPLC and Velos Pro Orbitrap Elite (S/N: SN05189B) operating in positive mode with a source voltage of 3.5 kV with data dependant processing. HPLC with a Phenomenox Kinetex C18, 1.7 μM, 2.1×100 mm. column (P/N: 00D-4475-AN), 5% acetonitrile/95% 0.1% formic acid for 0.5 min then a 7.0 min linear gradient to 40% acetonitrile/60% 0.1% formic acid, 400 μL/min., column temperature 45° C. Product assignments were based on high resolution mass spectrometer fragmentation.
# P-glycoprotein (MDR1) = P-glycoprotein (MDR1) (Homo sapiens (Human), UniProt P08183); assay: Pgp Liability MDR1 Er; format: in vitro ADME; details: dog; MDR1-transfected MDCK cell line; ratio of permeability, Papp BA/AB
# P-glycoprotein (MDR1), sequence (P08183 whole entry): as the sequence (P08183 whole entry) above
# Source text: as §1
# [6] = CHO cell transfected with hERG gene, automated Qpatch HT system
# [7] = MDR1-transfected MDCK cell line, ratio of permeability
# [8] = Table 4, read-out: BACE1 Cell Free IC50
# [9] = CHO cells transfected with hERG
# [10] = geometric mean of 2-4 determinations unless otherwise indicated (b: ≧5; c: single determination), read-out: BACE1 Cell-free Assay IC50
# hERG channel, sequence (Q12809 whole entry): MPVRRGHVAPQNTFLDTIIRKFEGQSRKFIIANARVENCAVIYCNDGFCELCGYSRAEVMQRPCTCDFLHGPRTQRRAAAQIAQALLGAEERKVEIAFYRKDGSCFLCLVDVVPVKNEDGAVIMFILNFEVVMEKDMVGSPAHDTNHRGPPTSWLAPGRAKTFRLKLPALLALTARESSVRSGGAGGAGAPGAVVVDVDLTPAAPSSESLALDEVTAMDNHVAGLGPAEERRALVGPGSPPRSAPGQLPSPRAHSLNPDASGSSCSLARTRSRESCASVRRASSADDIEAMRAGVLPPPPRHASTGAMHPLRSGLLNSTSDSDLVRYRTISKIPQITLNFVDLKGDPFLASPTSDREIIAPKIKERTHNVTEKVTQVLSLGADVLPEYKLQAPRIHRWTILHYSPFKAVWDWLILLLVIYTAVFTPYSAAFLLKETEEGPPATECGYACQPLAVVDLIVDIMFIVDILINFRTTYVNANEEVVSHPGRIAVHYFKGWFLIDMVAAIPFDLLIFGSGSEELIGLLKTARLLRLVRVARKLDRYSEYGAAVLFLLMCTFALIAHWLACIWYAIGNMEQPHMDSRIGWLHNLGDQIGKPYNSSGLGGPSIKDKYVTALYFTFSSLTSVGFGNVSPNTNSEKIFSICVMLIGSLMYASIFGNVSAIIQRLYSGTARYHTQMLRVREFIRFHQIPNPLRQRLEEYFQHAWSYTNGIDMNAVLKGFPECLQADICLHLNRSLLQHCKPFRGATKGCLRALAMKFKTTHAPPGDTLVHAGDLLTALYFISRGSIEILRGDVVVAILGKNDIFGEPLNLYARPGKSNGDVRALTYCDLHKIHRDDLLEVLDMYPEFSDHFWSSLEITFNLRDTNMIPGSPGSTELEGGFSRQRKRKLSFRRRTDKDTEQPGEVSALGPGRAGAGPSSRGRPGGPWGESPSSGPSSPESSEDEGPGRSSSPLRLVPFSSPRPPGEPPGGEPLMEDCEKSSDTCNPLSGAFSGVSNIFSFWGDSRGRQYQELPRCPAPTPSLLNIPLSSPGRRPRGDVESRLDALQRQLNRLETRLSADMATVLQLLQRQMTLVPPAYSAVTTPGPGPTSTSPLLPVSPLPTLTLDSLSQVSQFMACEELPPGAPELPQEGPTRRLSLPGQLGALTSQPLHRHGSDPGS
Compound,IC50 (hERG channel; [6]) [µM],pKa (pKa),"Pgp liability MDR1 Er [1, 7]",IC50 (BACE1; [8]) [µM],HLM CLint [2],IC50 [3] [µM],Aniline Structural Alert (Aniline structural alert),IC50 (hERG channel; [9]) [µM],pKa (pKa; read-out: pKa),Pgp liability MDR1 Er ([1]; MDR1-transfected MDCK),Observed GSH adducts (GSH Incubation Assay [5]),formation of GSH adducts (GSH Incubation Assay [5]),IC50 (CYP2D6) [µM],"IC50 (CYP2D6; human, microsomes, pH 7.4) [µM]",CLint scaled [2] [L/h/kg],IC50 ([3]; Homo sapiens) [µM],further results
"NC1=N[C@@]2(c3cc(NC(=O)c4ccc(OC(F)F)cn4)ccc3F)COCC[C@H]2CS1 [Comparator 4, reference compound]",0.5,8.2,6.8,0.009,8.3 mL/min/kg,< 0.001,Yes,,,,,,,,,,IC50 (CYP2D6; microsomes): < 0.1 µM
C[C@H]1C[C@H]2CSC(N)=N[C@@]2(c2cc(NC(=O)c3ccc(C#N)cn3)cs2)CO1 [Comparator 5],,,,,,,No,,,,,,,,,,formation of GSH adducts (GSH Incubation Assay [4]): formation of chemical adducts
"NC1=N[C@@]2(c3cc(NC(=O)c4ccc(OC(F)F)cn4)ccc3F)CO[C@@H](C(F)(F)F)C[C@H]2CS1 [Comparator 6, reference compound]",,7.7,3.2,0.006,<12.8 mL/min/kg,< 0.001,Yes,,,,,,,,,,BACE2/BACE1 Binding Ratio (human BACE2): 1.0
"C[C@H]1C[C@H]2CSC(N)=N[C@@]2(c2cc(NC(=O)c3ccc(Cl)cn3)ccc2F)CO1 [Comparator 7, reference compound]",0.2,8.2,3.03,0.001,34.4 mL/min/kg^,< 0.001,Yes,,,,,,,,,,BACE2/BACE1 Binding Ratio (human BACE2): 1.0
"C[C@H]1C[C@H]2CSC(N)=N[C@@]2(c2nc(NC(=O)c3ccc(OC(F)F)cn3)cs2)CO1 [Example 1, N-{2-[(4aR,6S,8aR)-2-amino-6-methyl-4,4a,5,6-tetrahydropyrano[3,4-d][1,3]thiazin-8a(8H)-yl]-1,3-thiazol-4-yl}-5-(difluoromethoxy)pyridine-2-carboxamide]",9.9,,,,<8 mL/min/kg,,,> 5,6.8,< 2.5,Negative,not detected,> 30,> 30,< 0.48,0.005,
"C[C@H]1C[C@H]2CSC(N)=N[C@@]2(c2nc(NC(=O)c3cnc(OC(F)F)cn3)cs2)CO1 [Example 2, N-{2-[(4aR,6S,8aR)-2-amino-6-methyl-4,4a,5,6-tetrahydropyrano[3,4-d][1,3]thiazin-8a(8H)-yl]-1,3-thiazol-4-yl}-5-(difluoromethoxy)pyrazine-2-carboxamide]",23.6,,,0.073,<8 mL/min/kg,,No,> 5,6.8,< 2.5,Negative,not detected,> 30,> 30,< 0.48,0.007,efflux ratio (P-glycoprotein (MDR1)): 1.8; IC50 (BACE1; [10]): 0.073 µM
"C[C@H]1C[C@H]2CSC(N)=N[C@@]2(c2nc(NC(=O)c3ccc(Cl)cn3)cs2)CO1 [Example 7, N-{2-[(4aR,6S,8aR)-2-amino-6-methyl-4,4a,5,6-tetrahydropyrano[3,4-d][1,3]thiazin-8a(8H)-yl]-1,3-thiazol-4-yl}-5-chloropyridine-2-carboxamide]",9,,,,<8 mL/min/kg,,No,> 5,6.9,< 2.5,Negative,not detected,> 30,> 30,< 0.48,0.004,
"Cc1cc(OC(F)F)cnc1C(=O)Nc1csc([C@]23CO[C@@H](C)C[C@H]2CSC(N)=N3)n1 [Example 45, N-{2-[(4aR,6S,8aR)-2-amino-6-methyl-4,4a,5,6-tetrahydropyrano[3,4-d][1,3]thiazin-8a(8H)-yl]-1,3-thiazol-4-yl}-5-(difluoromethoxy)-3-methylpyridine-2-carboxamide]",,,,0.023,<8 mL/min/kg,,No,,6.9,,Negative,not detected,> 30,> 30,< 0.48,0.003,IC50 (BACE1; [10]): 0.023 µM
